The values below come from patent US5674867A, “Indolocarbazole derivatives and therapeutic method for stimulating megakaicyocyte production” (Kyowa Hakko Kogyo Co., Ltd., priority 1992, dated 1997).

For this assay, the system named is bone marrow cells (megakaryocyte colony formation). Nature of the assay: Megakaryocyte colony formation-stimulating activity (ACHE-stained colonies, bone marrow cells with IL-3). The following applies: with IL-3 100 U/ml, 7 days. It counts as cell-based, BALB/c mouse. The procedure: An eight-weeks-old BALB/c mouse was killed. Its femurs and cervical vertebrae were taken out, and both end sections thereof were cut off. Bone marrow cells were collected from the pieces cut off from the femurs and cervical vertebrae using a syringe containing IMDM (430-2200EA prepared by Gibco Co.), and then blown into a test tube. The test tube was allowed to stand for 5 minutes, and the supernatant was collected with a pipet. To a reaction mixture comprising the bone marrow cells (50,000 cells), bovine serum albumin (2%: A4508 made by Sigma Co.), transferrin (600 μg/ml 652202 made by Boehringer Mannheim Co.), IL-3 (100 U/ml), cholesterol (16 μg/ml: 036-0641 made by Wako Co.) and agar (0.6%: 0142-02 made by Difco Laboratories) were separately added the test compounds at various concentrations, and 1 ml each of the mixtures was put into a 35-mm dish (Lux Co.), followed by incubation under the conditions of 37° C., 5% CO2 and a humidity of 95% or more for 7 days. Separately, IL-3 alone was added to the bone marrow cells to prepare a control, whereas a positive control was prepared by adding 200 U/ml IL-6 to the above-mentioned reaction mixture. After the incubation was completed, the agar was dried over a filter paper (1001-055 made by Whatman Co.) and then fixed with 2.5% glutaraldehyde, followed by acetylcholinesterase staining (ACHE staining).
The ACHE staining was carried out by the method described below.
ACHE staining: To each sample was added a solution comprising 0.67 mg/ml acetylthiocholine iodide, 2.94 mg/ml sodium citrate, 7.5 mg/ml copper (II) sulfate and 1.65 mg/ml potassium ferricyanide, and the mixture was allowed to stand at room temperature in the dark for 4-6 hours.
A group of 4 or more megakaryocytes which were stained reddish brown was regarded as a colony, and the number of colonies per dish was calculated using a microscope. The results are shown in Table 2 as relative values to the control.

Consider `COC1C(N(C)C(C)=O)CC2OC1(C)n1c3ccccc3c3c4c(c5c6ccccc6n2c5c31)C(=O)NC4` (centres unmarked) [Compound I-28], for which the “Relative value (megakaryocyte colonies, control = 100)” value (shortened to “Relative value”) (0.1 nM) is recorded as 89; the “Relative value” value (1 nM) is listed as 101; the “Relative value” value (10 nM) amounted to 95.

With `CCCCCCOC(=O)C1(O)CC2OC1(C)n1c3ccccc3c3c4c(c5c6ccccc6n2c5c31)C(=O)NC4` (centres unmarked) [Compound I-5], the “Relative value” value reads like this: (0.01 nM) 112; (1 nM) 104; (100 nM) 103.

For the compound `CNC1CC2OC(C)(C1OC)n1c3ccccc3c3c4c(c5c6cc(C=O)ccc6n2c5c31)C(=O)N(C)C4` (centres unmarked) [Compound I-50], the “Relative value” value reads like this: (1 nM) 118; (10 nM) 128.

In the case of `CCCN1C(=O)c2c(c3c4ccccc4n4c3c3c2c2ccccc2n3C2CC(O)(C(=O)OC)C4(C)O2)C1=O` (centres unmarked) [Compound I-44], the “Relative value” value was found to be 126 (0.1 nM), 70 (1 nM) and 118 (10 nM).

For `CCSC1NC(=O)c2c1c1c3ccccc3n3c1c1c2c2ccccc2n1C1CC(O)(C(=O)OC)C3(C)O1` (centres unmarked) [Compound I-14], the “Relative value” value is given as 118 (0.1 nM), 115 (1 nM) and 116 (10 nM).

For the compound `O=C1NCc2c1c1c3ccccc3[nH]c1c1[nH]c3ccccc3c21` [Compound I-16], the “Relative value” value by setting is: (0.1 nM) 118; (1 nM) 88.3; (10 nM) 100.

In the case of `COC(=O)C1(OC(C)=O)CC2OC1(C)n1c3ccccc3c3c4c(c5c6ccccc6n2c5c31)C(=O)N(C(C)=O)C4` (centres unmarked) [Compound I-8], the “Relative value” value is reported as 95.6 (0.01 nM), 118 (1 nM) and 89.6 (100 nM).

For the compound `COC(=O)C1(OC)CC2OC1(C)n1c3ccccc3c3c4c(c5c6ccccc6n2c5c31)C(=O)N(C)C4` (centres unmarked) [Compound I-7], the “Relative value” value (0.01 nM) is 93; the “Relative value” value (1 nM) was 101; the “Relative value” value (100 nM) was determined as 108.

As for `CCCN(C)C1CC2OC(C)(C1OC)n1c3ccccc3c3c4c(c5c6ccccc6n2c5c31)C(=O)N(C)C4` (centres unmarked) [Compound I-24], the “Relative value” value is, setting by setting: (0.1 nM) 88; (1 nM) 87; (10 nM) 109.

Regarding `CCCCCCN1Cc2c(c3c4ccccc4n4c3c3c2c2ccccc2n3C2(C)OC4CC(NC)C2OC)C1=O` (centres unmarked) [Compound I-20], the “Relative value” value is, setting by setting: (0.1 nM) 107; (1 nM) 131; (10 nM) 144.

For the compound `CCCCCCN(C)C1CC2OC(C)(C1OC)n1c3ccccc3c3c4c(c5c6ccccc6n2c5c31)C(=O)NC4` (centres unmarked) [Compound I-27], the “Relative value” value stood at 76 (0.1 nM), 109 (1 nM) and 97 (10 nM).

For `COC1C(N(C)C(=O)OCc2ccccc2)CC2OC1(C)n1c3ccccc3c3c4c(c5c6ccccc6n2c5c31)C(=O)N(C)C4` (centres unmarked) [Compound I-18], the “Relative value” value runs as follows: (0.1 nM) 118; (1 nM) 88; (10 nM) 84.

On to `COC(=O)C1(OC)CC2OC1(C)n1c3ccccc3c3c4c(c5c6ccccc6n2c5c31)C(=O)NC4` (centres unmarked) [Compound I-36], for which the “Relative value” value amounted to 130 (0.1 nM), 172 (1 nM) and 173 (10 nM).

In the case of `CNC1CC2OC(C)(C1OC)n1c3ccccc3c3c4c(c5c6ccccc6n2c5c31)C(=O)N(C)C4O` (single isomer, unassigned) [Compound I-23b], the “Relative value” value (0.1 nM) was 114.

Consider `COCOC1(C(=O)OC)CC2OC1(C)n1c3ccccc3c3c4c(c5c6ccccc6n2c5c31)C(=O)NC4` (centres unmarked) [Compound I-39], for which the “Relative value” value by setting is: (0.1 nM) 123; (1 nM) 109; (10 nM) 92.

Regarding `CCCCOC(=O)C1(O)CC2OC1(C)n1c3ccccc3c3c4c(c5c6ccccc6n2c5c31)C(=O)NC4` (centres unmarked) [Compound I-15], the “Relative value” value is, setting by setting: (0.1 nM) 120; (1 nM) 121; (10 nM) 132.

As for `CCCCOC(=O)C1(O)CC2OC1(C)n1c3ccccc3c3c4c(c5c6ccccc6n2c5c31)C(=O)NC4=O` (centres unmarked) [Compound I-43], the “Relative value” value reads like this: (0.1 nM) 81; (1 nM) 118; (10 nM) 87.

Consider `CCCN1Cc2c(c3c4ccccc4n4c3c3c2c2ccccc2n3C2(C)OC4CC(NC)C2OC)C1=O` (centres unmarked) [Compound I-19], for which the “Relative value” value (0.1 nM) is on record as 118; the “Relative value” value (1 nM) was 94; the “Relative value” value (10 nM) amounted to 156.

With `CNC1CC2OC(C)(C1OC)n1c3ccccc3c3c4c(c5c6ccccc6n2c5c31)C(=O)N(N)C4=O` (centres unmarked) [Compound I-3], the “Relative value” value is reported as 98.8 (0.01 nM) and 127 (1 nM).

For `CNC1CC2OC(C)(C1OC)n1c3ccccc3c3c4c(c5c6ccccc6n2c5c31)C(=O)N(C)C4O` (single isomer, unassigned) [Compound I-23a], the “Relative value” value (0.1 nM) came to 114.

In the case of `CCCOC(=O)C1(O)CC2OC1(C)n1c3ccccc3c3c4c(c5c6ccccc6n2c5c31)C(=O)NC4` (centres unmarked) [Compound I-42], the “Relative value” value reads like this: (0.1 nM) 91; (1 nM) 107; (10 nM) 122.

For `CC(C)OC(=O)C1(O)CC2OC1(C)n1c3ccccc3c3c4c(c5c6ccccc6n2c5c31)C(=O)NC4` (centres unmarked) [Compound I-45], the “Relative value” value is, setting by setting: (0.1 nM) 103; (1 nM) 143; (10 nM) 100.

With “IL-6: hematopoietic factor which stimulates the production of blood platelets; positive control”, the “Relative value” value (200 U/ml, positive control) is given as 117.

On to `CNC1CC2OC(C)(C1OC)n1c3ccccc3c3c4c(c5c6ccccc6n2c5c31)C(=O)N(C)C4` (centres unmarked) [Compound I-2], for which the “Relative value” value was found to be 125 (0.01 nM) and 168 (1 nM, 10080 min, 0.001 µM).

On to `CCCOc1ccc2c(c1)c1c3c(c4c5ccccc5n5c4c1n2C1CC(O)(C(=O)OC)C5(C)O1)CNC3=O` (centres unmarked) [Compound I-6], for which the “Relative value” value reads like this: (0.01 nM) 112; (1 nM) 132; (100 nM) 117.

For `COC(=O)C1(O)CC2OC1(C)n1c3ccccc3c3c4c(c5c6ccccc6n2c5c31)C(=O)NC4O` (centres unmarked) [Compound I-4], the “Relative value” value was found to be 94.3 (0.01 nM) and 115 (1 nM).

Take `COC(=O)C1(OC(C)=O)CC2OC1(C)n1c3ccccc3c3c4c(c5c6cc(C(C)=O)ccc6n2c5c31)C(=O)N(C(C)=O)C4` (centres unmarked) [Compound I-37]: the “Relative value” value came to 82 (0.1 nM), 124 (1 nM) and 114 (10 nM).

Consider `CNC1CC2OC(C)(C1OC)n1c3ccccc3c3c4c(c5c6ccccc6n2c5c31)C(=O)N(C)C4` (centres unmarked) [Compound I-22], for which the “Relative value” value stood at 116 (0.1 nM); 120 (1 nM, 10080 min, 0.001 µM); 100 (10 nM).

`CNC1CC2OC(C)(C1OC)n1c3ccccc3c3c4c(c5c6cc(Br)ccc6n2c5c31)C(=O)NC4` (centres unmarked) [Compound I-29]: the “Relative value” value is reported as 90 (0.1 nM), 113 (1 nM) and 112 (10 nM).

With `COC(=O)C1(O)CC2OC1(C)n1c3ccccc3c3c4c(c5c6ccccc6n2c5c31)C(=O)N(Cc1ccccc1)C4=O` (centres unmarked) [Compound I-13], the “Relative value” value reads like this: (0.1 nM) 100; (1 nM) 113; (10 nM) 125.
